{"source": "patent US20070092577A1", "about": "“Dietary calcium for reducing the production of reactive oxygen species” (University of Tennessee Research Foundation, priority 2005, published 2007)", "key": {"[1]": {"tested_on": "IL-6", "assay": "IL-6 expression in differentiated Zen-bio human adipocytes", "format": "cell-based", "conditions": "10 nmol/L, 48 h; p=0.004", "protocol": "Human pre-adipocytes used in this study were supplied by Zen-Bio (Research Triangle, N.C.). […] The cells are isolated from the stromal vascular fraction of human subcutaneous adipose tissue and differentiated in vitro as follows: […] Preadipocytes were maintained in this differentiation medium for 3 days and subsequently cultured in adipocyte medium in which BRL49653 and MIX were omitted. Cultures were re-fed every 2-3 days till fully differentiated. Cells were incubated in serum free medium overnight before chemical treatment. Chemicals were freshly diluted in adipocyte medium before treatment. […] Cell viability was measured via trypan blue exclusion. Adipocyte and muscle 18s, TNFα, IL-6, IL-8, IL-15 and adiponectin were quantitatively measured using a smart cycler real-time PCR system (Cepheid, Sunnyvale, Calif.) with a TaqMan 1000 Core Reagent Kit (Applied Biosystems, Branchburg, N.J.). […] Reactions of quantitative RT-PCR for standards and unknown samples were also performed according to the instructions of Smart Cycler System (Cepheid, Sunnyvale, Calif.) and TaqMan Real Time PCR Core Kit (Applied Biosystems, Branchburg, N.J.). The mRNA quantitation for each sample was further normalized using the corresponding 18s quantitation."}, "[2]": {"tested_on": "CD14", "assay": "CD14 expression in human adipocytes", "format": "cell-based", "conditions": "calcitriol 10 nmol/L, 48 hours; p=0.008", "from_the_text": "Cell culture: Human preadipocytes used in this study were supplied by Zen-Bio (Research Triangle, N.C.). Preadipocytes were inoculated in DMEM/Ham's F-10 medium (DMEM-F10) (1:1, vol/vol) containing 10% FBS, 15 mmol/L HEPES, and antibiotics at a density of 30,000 cells/cm^2. Confluent monolayers of preadipocytes were induced to differentiate with a standard differentiation medium consisting of DMEM-F 10 (1:1, vol/vol) medium supplemented with 15 mmol/L HEPES, 3% FBS, 33 μmol/L biotin, 17 μmol/L pantothenate, 100 nmol/L insulin, […] methylisobutylxanthine, 1 μmol/L dexamethasone, 1 μmol/L BRL49653, and antibiotics. […]\n(§1) Cells were washed with fresh adipocyte medium, re-fed with medium containing the indicated treatments, and incubated at 37° C. in 5% CO2 for 48 hours before analysis. Cell viability was measured via trypan blue exclusion.\n(§2) Adipocyte and muscle 18s, CD14, TNFα, MIP, M-CSF, IL-6 and MCP-1 were quantitatively measured using a Smart Cycler Real Time PCR System (Cepheid, Sunnyvale, Calif.) with a TaqMan 1000 Core Reagent Kit (Applied Biosystems, Branchburg, N.J.). […] Reactions of quantitative RT-PCR for standards and unknown samples were also performed according to the instructions of Smart Cycler System (Cepheid, Sunnyvale, Calif.) and TaqMan Real Time PCR Core Kit (Applied Biosystems, Branchburg, N.J.). […]"}, "[3]": {"tested_on": "cyclin A", "assay": "Cyclin A expression in 3T3-L1 adipocytes", "format": "cell-based, murine", "conditions": "added to glucose 30 mmol/L, 48 hours; nifedipine 10 μmol/L", "protocol": "3T3-L1 preadipocytes were incubated at a density of 8000 cells/cm^2 (10 cm^2 dish) and grown in Dulbecco's modified Eagle's medium (DMEM) containing 10% FBS and antibiotics (adipocyte medium) at 37° C. in 5% CO2 in air. Confluent preadipocytes were induced to differentiate with a standard differentiation medium consisting of DMEM-F 10 (1:1, vol/vol) medium supplemented with 1% FBS, 1 μM dexamethasone, IBMX (0.5 mM) and antibiotics (1% Penicillin-Streptomycin). Preadipocytes were maintained in this differentiation medium for 3 days and subsequently cultured in adipocyte medium. Cultures were re-fed every 2-3 days to allow 90% of cells to reach full differentiation before conducting chemical treatment. Chemicals were freshly diluted in adipocyte medium before treatment. […] Cell viability was measured via trypan blue exclusion. Adipocyte 18s, cyclin A, NADPH oxidase, and UCP2 were quantitatively measured using a Smart Cycler Real Time PCR System (Cepheid, Sunnyvale, Calif.) with a TaqMan 1000 Core Reagent Kit (Applied Biosystems, Branchburg, N.J.). […] Reactions of quantitative RT-PCR for standards and unknown samples were also performed according to the instructions of Smart Cycler System (Cepheid, Sunnyvale, Calif.) and TaqMan Real Time PCR Core Kit (Applied Biosystems, Branchburg, N.J.). The mRNA quantitation for each sample was further normalized using the corresponding 18s quantitation."}, "[4]": {"tested_on": "CD14", "assay": "CD14 expression in mouse (3T3-L1) adipocytes", "format": "cell-based", "conditions": "calcitriol 10 nmol/L, 48 hours", "protocol": "RAW 264 macrophages and 3T3-L1 preadipocytes (American Type Culture Collection) were incubated at a density of 8000 cells/cm2 (10 cm2 dish) and grown in Dulbecco's modified Eagle's medium (DMEM) containing 10% FBS and antibiotics (adipocyte medium) at 37° C. in 5% CO2 in air. Confluent 3T3-L1 preadipocytes were induced to differentiate with a standard differentiation medium consisting of DMEM-F10 (1:1, vol/vol) medium supplemented with 1% FBS, 1 μM dexamethasone, IBMX (0.5 mM) and antibiotics (1% Penicillin-Streptomycin). Preadipocytes were maintained in this differentiation medium for 3 days and subsequently cultured in adipocyte medium. […]\nas §1, §2"}}}
{"molecule": "C=C1/C(=C\\C=C2/CCC[C@]3(C)[C@@H]([C@H](C)CCCC(C)(C)O)CC[C@@H]23)C[C@@H](O)C[C@@H]1O", "note": "[calcitriol, 1, 25-Dihydroxyvitamin D]", "values": [{"measurement": "stimulation of IL-6 expression", "setting": "[1]", "value": 53, "unit": "%"}, {"measurement": "increase of CD14 expression", "setting": "[2]", "value": 33, "unit": "%"}, {"measurement": "effect on glucose stimulated cyclin A expression", "setting": "[3]", "value": "augmented"}, {"measurement": "increase of CD14 expression", "setting": "[4]", "value": 45, "unit": "%"}]}
